Experimental data published in the kinase profiling compilation of Christmann-Franck et al. (2016).

Experiments:
Experiment in all cases: Caliper, Mobility shift assay off-chip
[1] = target: SGK3 (human) (UniProt Q96BR1)
[2] = target: PIM2 (human) (UniProt Q9P1W9)
[3] = target: PRKCZ (human) (UniProt Q05513)
[4] = target: IKBKB (human) (UniProt O14920)
[5] = target: PRKD2 (human) (UniProt Q9BZL6)
[6] = target: KDR (human) (UniProt P35968)
[7] = target: PRKCA (human) (UniProt P17252)
[8] = target: IGF1R (human) (UniProt P08069)
IGF1R (human), sequence (P08069 whole entry, looked up): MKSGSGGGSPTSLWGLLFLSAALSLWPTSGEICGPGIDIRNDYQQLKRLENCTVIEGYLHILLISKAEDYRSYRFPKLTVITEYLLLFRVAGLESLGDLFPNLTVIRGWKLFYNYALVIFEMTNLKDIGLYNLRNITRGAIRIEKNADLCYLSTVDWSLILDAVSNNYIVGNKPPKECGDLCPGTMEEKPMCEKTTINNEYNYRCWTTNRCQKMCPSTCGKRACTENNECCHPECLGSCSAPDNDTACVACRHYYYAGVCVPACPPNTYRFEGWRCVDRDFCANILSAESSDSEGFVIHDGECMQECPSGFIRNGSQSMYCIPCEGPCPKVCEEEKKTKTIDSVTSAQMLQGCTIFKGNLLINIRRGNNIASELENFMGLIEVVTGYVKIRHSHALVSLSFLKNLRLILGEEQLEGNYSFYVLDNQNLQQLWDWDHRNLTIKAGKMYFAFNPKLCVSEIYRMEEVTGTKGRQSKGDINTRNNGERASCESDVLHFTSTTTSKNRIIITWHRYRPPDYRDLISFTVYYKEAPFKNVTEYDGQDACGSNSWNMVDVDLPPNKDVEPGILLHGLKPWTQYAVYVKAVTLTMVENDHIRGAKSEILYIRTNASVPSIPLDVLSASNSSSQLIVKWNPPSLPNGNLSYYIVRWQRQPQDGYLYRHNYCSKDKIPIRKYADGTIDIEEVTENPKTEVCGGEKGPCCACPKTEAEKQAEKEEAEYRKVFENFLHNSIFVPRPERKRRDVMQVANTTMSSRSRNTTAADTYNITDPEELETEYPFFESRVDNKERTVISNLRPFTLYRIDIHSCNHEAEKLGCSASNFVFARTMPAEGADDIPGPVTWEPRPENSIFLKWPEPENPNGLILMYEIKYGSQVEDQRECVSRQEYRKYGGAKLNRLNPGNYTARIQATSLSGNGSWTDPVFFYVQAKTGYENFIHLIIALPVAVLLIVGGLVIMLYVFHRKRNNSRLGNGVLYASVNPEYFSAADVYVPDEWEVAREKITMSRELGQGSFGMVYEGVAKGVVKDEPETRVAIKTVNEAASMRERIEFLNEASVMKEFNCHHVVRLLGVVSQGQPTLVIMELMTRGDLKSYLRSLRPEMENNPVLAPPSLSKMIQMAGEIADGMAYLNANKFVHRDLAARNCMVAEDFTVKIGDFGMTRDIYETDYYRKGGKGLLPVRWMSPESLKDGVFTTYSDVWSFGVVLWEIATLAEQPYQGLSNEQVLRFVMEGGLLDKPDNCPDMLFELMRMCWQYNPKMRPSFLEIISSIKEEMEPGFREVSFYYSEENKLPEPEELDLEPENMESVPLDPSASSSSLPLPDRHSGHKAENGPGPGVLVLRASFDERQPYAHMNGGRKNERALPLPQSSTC

[9] = target: RPS6KB1 (human) (UniProt P23443)
[10] = target: GSK3B (human) (UniProt P49841)
[11] = target: MAPK12 (human) (UniProt P53778)
MAPK12 (human), sequence (P53778 whole entry, looked up): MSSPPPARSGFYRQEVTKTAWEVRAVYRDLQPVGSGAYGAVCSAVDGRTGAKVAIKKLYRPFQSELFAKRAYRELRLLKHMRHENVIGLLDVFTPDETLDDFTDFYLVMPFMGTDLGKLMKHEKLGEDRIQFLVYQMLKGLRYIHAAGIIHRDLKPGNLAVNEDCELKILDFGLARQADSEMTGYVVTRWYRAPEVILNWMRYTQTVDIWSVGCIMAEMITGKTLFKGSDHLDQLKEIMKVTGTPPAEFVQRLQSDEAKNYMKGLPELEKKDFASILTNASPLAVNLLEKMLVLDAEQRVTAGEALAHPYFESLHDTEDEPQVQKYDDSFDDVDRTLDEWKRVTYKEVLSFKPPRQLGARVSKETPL

[12] = target: BRSK2 (human) (UniProt Q8IWQ3)
[13] = target: MAPK14 (human) (UniProt Q16539)
MAPK14 (human), sequence (Q16539 whole entry, looked up): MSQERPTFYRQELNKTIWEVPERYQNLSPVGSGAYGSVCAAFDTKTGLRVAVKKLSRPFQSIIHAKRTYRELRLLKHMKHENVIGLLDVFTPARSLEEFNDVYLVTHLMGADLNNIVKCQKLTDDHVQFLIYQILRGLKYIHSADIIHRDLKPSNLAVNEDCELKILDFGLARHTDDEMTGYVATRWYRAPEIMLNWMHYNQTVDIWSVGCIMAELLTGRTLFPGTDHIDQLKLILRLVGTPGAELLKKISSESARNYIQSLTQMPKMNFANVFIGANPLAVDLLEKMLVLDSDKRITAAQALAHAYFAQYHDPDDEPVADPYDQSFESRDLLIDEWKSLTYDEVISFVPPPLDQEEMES

[14] = target: SRC (human) (UniProt P12931)
[15] = target: DCLK2 (human) (UniProt Q8N568)
[16] = target: CHEK1 (human) (UniProt O14757)
[17] = target: PIM1 (human) (UniProt P11309)
[18] = system: FGFR2 (human), P21802 [N549H]
[19] = target: SGK1 (human) (UniProt O00141)
[20] = target: MAPKAPK5 (human) (UniProt Q8IW41)
[21] = target: INSR (human) (UniProt P06213)
[22] = target: MARK2 (human) (UniProt Q7KZI7)
[23] = target: PRKACA (human) (UniProt P17612)
[24] = system: ABL1 (human), P00519 [T315I]
[25] = target: AKT3 (human) (UniProt Q9Y243)
[26] = target: BRSK1 (human) (UniProt Q8TDC3)
[27] = target: MARK3 (human) (UniProt P27448)
MARK3 (human), sequence (P27448 whole entry, looked up): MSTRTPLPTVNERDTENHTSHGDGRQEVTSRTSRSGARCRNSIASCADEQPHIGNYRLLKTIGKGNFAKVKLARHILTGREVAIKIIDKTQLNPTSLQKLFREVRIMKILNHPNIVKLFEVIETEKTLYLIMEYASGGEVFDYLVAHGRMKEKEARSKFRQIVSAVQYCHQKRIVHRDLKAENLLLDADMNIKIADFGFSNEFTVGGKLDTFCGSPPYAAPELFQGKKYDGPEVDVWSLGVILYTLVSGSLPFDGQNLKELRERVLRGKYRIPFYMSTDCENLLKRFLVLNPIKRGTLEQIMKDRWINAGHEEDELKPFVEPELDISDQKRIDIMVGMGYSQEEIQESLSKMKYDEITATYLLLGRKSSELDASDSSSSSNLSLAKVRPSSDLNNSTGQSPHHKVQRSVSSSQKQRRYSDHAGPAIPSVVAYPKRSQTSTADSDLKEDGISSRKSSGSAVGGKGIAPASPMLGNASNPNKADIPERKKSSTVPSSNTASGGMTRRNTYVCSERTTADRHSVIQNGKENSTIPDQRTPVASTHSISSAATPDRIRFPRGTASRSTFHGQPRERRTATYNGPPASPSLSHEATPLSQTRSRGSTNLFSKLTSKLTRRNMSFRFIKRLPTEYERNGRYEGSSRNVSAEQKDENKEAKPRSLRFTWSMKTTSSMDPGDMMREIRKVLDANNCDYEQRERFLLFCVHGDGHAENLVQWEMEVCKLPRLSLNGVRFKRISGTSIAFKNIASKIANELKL

[28] = target: HCK (human) (UniProt P08631)
HCK (human), sequence (P08631 whole entry, looked up): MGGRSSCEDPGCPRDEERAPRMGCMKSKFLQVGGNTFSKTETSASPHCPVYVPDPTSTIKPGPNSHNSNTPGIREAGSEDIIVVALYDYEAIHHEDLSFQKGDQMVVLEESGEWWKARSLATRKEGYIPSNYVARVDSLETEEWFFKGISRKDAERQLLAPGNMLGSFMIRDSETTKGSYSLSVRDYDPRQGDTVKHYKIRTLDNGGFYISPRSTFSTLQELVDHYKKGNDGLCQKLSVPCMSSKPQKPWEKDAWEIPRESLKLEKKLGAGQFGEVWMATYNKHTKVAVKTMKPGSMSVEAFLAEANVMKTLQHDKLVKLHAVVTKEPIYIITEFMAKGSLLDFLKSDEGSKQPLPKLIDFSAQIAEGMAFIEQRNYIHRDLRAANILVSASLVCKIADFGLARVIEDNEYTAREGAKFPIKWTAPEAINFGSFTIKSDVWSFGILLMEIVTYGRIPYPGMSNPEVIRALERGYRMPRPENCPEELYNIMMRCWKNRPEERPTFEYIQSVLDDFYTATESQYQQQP

[29] = target: PRKCB1 (human) (UniProt P05771)
PRKCB1 (human), sequence (P05771 whole entry, looked up): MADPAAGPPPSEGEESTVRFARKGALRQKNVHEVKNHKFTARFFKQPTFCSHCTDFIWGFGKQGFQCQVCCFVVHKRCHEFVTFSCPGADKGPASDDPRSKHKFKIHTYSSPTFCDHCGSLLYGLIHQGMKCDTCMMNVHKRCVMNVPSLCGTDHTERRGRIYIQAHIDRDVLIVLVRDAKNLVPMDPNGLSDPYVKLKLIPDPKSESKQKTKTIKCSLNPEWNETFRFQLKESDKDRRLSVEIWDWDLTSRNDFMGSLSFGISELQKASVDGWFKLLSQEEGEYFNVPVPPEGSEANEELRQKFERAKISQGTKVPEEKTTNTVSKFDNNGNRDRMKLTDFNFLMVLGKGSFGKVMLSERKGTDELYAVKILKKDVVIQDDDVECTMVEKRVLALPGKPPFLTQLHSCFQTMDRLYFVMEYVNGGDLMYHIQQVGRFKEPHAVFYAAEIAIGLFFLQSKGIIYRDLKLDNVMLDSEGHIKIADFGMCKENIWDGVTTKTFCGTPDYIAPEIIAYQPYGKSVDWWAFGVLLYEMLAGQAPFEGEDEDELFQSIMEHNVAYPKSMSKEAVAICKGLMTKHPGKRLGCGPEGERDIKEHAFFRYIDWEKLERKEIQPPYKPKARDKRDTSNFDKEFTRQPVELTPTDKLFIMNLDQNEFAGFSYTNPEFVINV

[30] = target: MAPKAPK3 (human) (UniProt Q16644)
[31] = target: FGFR3 (human) (UniProt P22607)
[32] = target: ABL2 (human) (UniProt P42684)
[33] = target: RPS6KA4 KD1 KD2 (human) (UniProt O75676)

PRKD2 (human), sequence (Q9BZL6 whole entry, looked up): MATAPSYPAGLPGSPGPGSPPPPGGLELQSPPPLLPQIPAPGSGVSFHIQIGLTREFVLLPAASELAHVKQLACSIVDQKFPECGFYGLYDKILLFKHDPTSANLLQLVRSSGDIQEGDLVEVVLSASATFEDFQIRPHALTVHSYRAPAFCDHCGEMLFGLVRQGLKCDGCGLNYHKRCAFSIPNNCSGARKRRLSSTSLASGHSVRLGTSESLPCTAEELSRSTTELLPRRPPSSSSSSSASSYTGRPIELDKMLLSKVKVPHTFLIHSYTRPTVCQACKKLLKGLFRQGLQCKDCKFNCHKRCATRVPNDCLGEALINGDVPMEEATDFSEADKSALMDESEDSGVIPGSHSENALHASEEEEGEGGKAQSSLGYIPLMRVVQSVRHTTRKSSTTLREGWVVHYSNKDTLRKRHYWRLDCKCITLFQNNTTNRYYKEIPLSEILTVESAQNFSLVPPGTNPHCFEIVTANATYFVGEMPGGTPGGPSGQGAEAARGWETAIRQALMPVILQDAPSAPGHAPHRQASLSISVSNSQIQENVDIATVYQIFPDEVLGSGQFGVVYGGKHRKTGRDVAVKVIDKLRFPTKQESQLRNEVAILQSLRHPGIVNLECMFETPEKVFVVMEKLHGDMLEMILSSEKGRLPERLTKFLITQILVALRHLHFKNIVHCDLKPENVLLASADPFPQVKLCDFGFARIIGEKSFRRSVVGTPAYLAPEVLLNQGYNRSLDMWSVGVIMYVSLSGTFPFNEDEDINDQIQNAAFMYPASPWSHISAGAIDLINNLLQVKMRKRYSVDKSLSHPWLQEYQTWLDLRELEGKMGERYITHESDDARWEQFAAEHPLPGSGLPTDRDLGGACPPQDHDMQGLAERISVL

For `Cn1cc(-c2cnc3ccc4ccc(CS(=O)(=O)NC5CCCCC5)cc4c(=O)c3c2)cn1`, the inhibition ([1]; compound 0.01 µM) was 4.9%, the inhibition ([1]; compound 0.1 µM) was 17.7% and the inhibition ([2]; compound 0.01 µM) was -11%. It also gave an inhibition ([2]; compound 0.1 µM) of 4.3%, an inhibition ([3]; compound 0.01 µM) of 1.8% and an inhibition ([3]; compound 0.1 µM) of 3.6%. The inhibition ([4]; compound 0.01 µM) was 3.8%, the inhibition ([4]; compound 0.1 µM) was -0.4% and the inhibition ([5]; compound 0.01 µM) was 1.6%. It also gave an inhibition ([5]; compound 0.1 µM) of -3.6%, an inhibition ([6]; compound 0.01 µM) of 3.5% and an inhibition ([6]; compound 0.1 µM) of -10%. The inhibition ([7]; compound 0.01 µM) was -5.5%, the inhibition ([7]; compound 0.1 µM) was 5.2% and the inhibition ([8]; compound 0.01 µM) was 3.9%. The inhibition ([8]; compound 0.1 µM) was -7.9%, the inhibition ([9]; compound 0.01 µM) was 8% and the inhibition ([9]; compound 0.1 µM) was 4.2%. The inhibition ([10]; compound 0.01 µM) was 4.9%, the inhibition ([10]; compound 0.1 µM) was 1.3% and the inhibition ([11]; compound 0.01 µM) was 2%. The inhibition ([11]; compound 0.1 µM) was 5.1%, the inhibition ([12]; compound 0.01 µM) was 0.3% and the inhibition ([12]; compound 0.1 µM) was 9.7%. For the same molecule, the inhibition ([13]; compound 0.01 µM) was -1.7%, the inhibition ([13]; compound 0.1 µM) was -2.6% and the inhibition ([14]; compound 0.01 µM) was 2.2%. It also gave an inhibition ([14]; compound 0.1 µM) of -1.4%, an inhibition ([15]; compound 0.01 µM) of 1.7% and an inhibition ([15]; compound 0.1 µM) of 7.8%. It also gave an inhibition ([16]; compound 0.01 µM) of 4.3%, an inhibition ([16]; compound 0.1 µM) of 1.3% and an inhibition ([17]; compound 0.01 µM) of -11.4%. The inhibition ([17]; compound 0.1 µM) was -4.6%, the inhibition ([18]; compound 0.01 µM) was -3.9% and the inhibition ([18]; compound 0.1 µM) was 12.4%. For the same molecule, the inhibition ([19]; compound 0.01 µM) was 2.1%, the inhibition ([19]; compound 0.1 µM) was 9.1% and the inhibition ([20]; compound 0.01 µM) was -2.5%. For the same molecule, the inhibition ([20]; compound 0.1 µM) was 6.9%, the inhibition ([21]; compound 0.01 µM) was 3.1% and the inhibition ([21]; compound 0.1 µM) was 3.1%. It also gave an inhibition ([22]; compound 0.01 µM) of -2.5%, an inhibition ([22]; compound 0.1 µM) of -1.4% and an inhibition ([23]; compound 0.01 µM) of 2.8%. For the same molecule, the inhibition ([23]; compound 0.1 µM) was -0.1%, the inhibition ([24]; compound 0.01 µM) was 0.6% and the inhibition ([24]; compound 0.1 µM) was 0.3%. It also gave an inhibition ([25]; compound 0.01 µM) of -2.7%, an inhibition ([25]; compound 0.1 µM) of 5.2% and an inhibition ([26]; compound 0.01 µM) of -2.1%. The inhibition ([26]; compound 0.1 µM) was -1.6%, the inhibition ([27]; compound 0.01 µM) was -3.5% and the inhibition ([27]; compound 0.1 µM) was -0.6%. It also gave an inhibition ([28]; compound 0.01 µM) of 3.5%, an inhibition ([28]; compound 0.1 µM) of 7.6% and an inhibition ([29]; compound 0.01 µM) of -6%. The inhibition ([29]; compound 0.1 µM) was 1.4%, the inhibition ([30]; compound 0.01 µM) was -8% and the inhibition ([30]; compound 0.1 µM) was 4.1%. The inhibition ([31]; compound 0.01 µM) was -4%, the inhibition ([31]; compound 0.1 µM) was 7.8% and the inhibition ([32]; compound 0.01 µM) was -2.4%. The inhibition ([32]; compound 0.1 µM) was -4.3%, the inhibition ([33]; compound 0.01 µM) was -2.3% and the inhibition ([33]; compound 0.1 µM) was -2.1%.
